ChEMBL document CHEMBL1137552, “Modifications of the chemical structure of terpenes in antiplasmodial and antifungal drug research” (Bioorg Med Chem Lett, 2007)
pIC50: −log10 of the molar value. In brackets after ≈: the same amount, converted by molar mass.

Key:
Plasmodium falciparum = assay: Antiplasmodial activity after 48 hrs against chloroquine-resistant Plasmodium falciparum FcM29-Cameroon by [3H]hypoxanthine uptake; type: functional, organism-based
Candida albicans [1] = assay: Antifungal activity against Candida albicans ATCC 90028 after 48 hrs; type: functional; conditions: ATCC 90028, 48 h
Candida albicans [2] = assay: Antifungal activity against Candida albicans ATCC 90028 after 24 hrs; type: functional; conditions: ATCC 90028, 24 h

SMILES	pIC50 (Plasmodium falciparum)	MIC (Candida albicans [1]) [µg/mL]	MIC (Candida albicans [2]) [µg/mL]
C#CCOC/C=C(\C)CCC=C(C)C	3.91	> 200	> 200
C#CCOCC1=CC[C@@H](C(=C)C)CC1	4.48	> 200	> 200
C#CCO[C@@H]1C[C@H](C)CC[C@H]1C(=C)C	4.51	> 200	> 200
C=C(C)[C@H]1CCC23COC=CC2C3C1 (stereo partly drawn)	< 4.00	> 200	> 200
CC1CC(=O)O[C@@H]2C[C@H](C)CC[C@@H]12 (stereo partly drawn)	3.33	> 200	> 200
CC(C)=CCC[C@@]1(C)OCC2=CC(=O)CC21 (stereo partly drawn)	5.74	> 200	> 200
C=CC1=C(C)[C@@H]2CC[C@@H](C)C[C@H]2OC1	< 4.00	> 200	> 200
C#CCO[C@@](C)(C=C)CCC=C(C)C	4.41	> 200	> 200
C[C@@H]1CC[C@H]2[C@@H](C)C(=O)O[C@@H]3O[C@@]4(C)CC[C@@H]1[C@]32OO4 [ARTEMISININ]	8.15	> 200	> 200
CCN(CC)CCCC(C)Nc1ccnc2cc(Cl)ccc12 (stereo not drawn) [CHLOROQUINE]		> 200	> 200
CC(C)=CCCC(C)CCO (stereo not drawn) [CITRONELLOL]	3.72	> 200	> 200
C=C(C)[C@H]1CC=C(C)CC1 [D-LIMONENE]	4.18	> 200	> 200
Nc1nc(=O)[nH]cc1F [FLUCYTOSINE]		0.75 (≈ 5.81 µM)	
CC(C)=CCC/C(C)=C/CO [GERANIOL]	4.28	> 200	> 200
C=C(C)[C@@H]1CC[C@@H](C)C[C@H]1O [ISOPULEGOL]	3.55	> 200	> 200
C=CC(C)(O)CCC=C(C)C (stereo not drawn) [LINALOOL]	3.28	> 200	> 200
C=C(C)[C@@H]1CC=C(CO)CC1 [PERILLYL ALCOHOL]	3.74	> 200	> 200
